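Step 1: Grow cells in 96-well plates. Step 2: Expose to compound for 48 hours at 5 concentrations. Step 3: Interpolate endpoints linearly; if unreached, use highest concentration. GI50 marks 50% less growth. TGI: total growth inhibition.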

Some test systems named below: IGROV1 ovarian; LOX IMVI melanoma; PC-3 prostate; M14 melanoma; NCI-H522 lung; HT29 colon; EKVX NSCLC; OVCAR-5 ovarian; A549 NSCLC; NCI-H460 lung.
Common to all, as to assay: NCI-60 cell line screen, 48 h

As to `COC(=O)c1c(C(=O)O)c(-c2ccccc2)c(-c2ccccc2)c(-c2ccccc2)c1-c1ccccc1`, the GI50 in the experiment on IGROV1 ovarian was greater than 100 µM; in the experiment with LOX IMVI melanoma, greater than 100 µM; in the experiment on PC-3 prostate it was greater than 100000 nM; in the experiment on M14 melanoma it was greater than 100 µM; in the experiment with NCI-H522 lung it was 88.5 µM; in the experiment on HT29 colon, greater than 100 µM. In addition, the GI50 in the experiment on EKVX NSCLC, in the experiment on OVCAR-5 ovarian, in the experiment with A549 NSCLC and with NCI-H460 lung was greater than 100 µM throughout. In addition, the TGI in the experiment with IGROV1 ovarian, in the experiment on LOX IMVI melanoma, in the experiment with PC-3 prostate, with M14 melanoma, in the experiment with NCI-H522 lung and with HT29 colon was greater than 100 µM throughout. The TGI in the experiment on EKVX NSCLC, in the experiment with OVCAR-5 ovarian, in the experiment on A549 NSCLC and in the experiment on NCI-H460 lung was greater than 100 µM throughout.

Take `COc1ccc(C(=O)Cn2c(C(=O)c3ccc(Cl)cc3)nc(-c3ccccc3)c2-c2ccccc2)cc1`: the GI50 in the experiment on IGROV1 ovarian was 67.1 µM; in the experiment on LOX IMVI melanoma it was greater than 100 µM; in the experiment on PC-3 prostate, greater than 100000 nM; with M14 melanoma, greater than 100 µM; in the experiment on NCI-H522 lung, greater than 100 µM; with HT29 colon it was greater than 100 µM. Also, the GI50 with EKVX NSCLC was greater than 100 µM; in the experiment with OVCAR-5 ovarian, greater than 100 µM; with A549 NSCLC, 60 µM; in the experiment with NCI-H460 lung, greater than 100 µM. Moreover, the TGI with IGROV1 ovarian, in the experiment with LOX IMVI melanoma, in the experiment with PC-3 prostate, in the experiment with M14 melanoma, with NCI-H522 lung and in the experiment on HT29 colon was greater than 100 µM throughout. In addition, the TGI in the experiment on EKVX NSCLC, with OVCAR-5 ovarian, in the experiment with A549 NSCLC and in the experiment with NCI-H460 lung was greater than 100 µM each time.

For `O=C(CC1(O)CCCCC1)OC1CCCC1`, the TGI with IGROV1 ovarian, with LOX IMVI melanoma, in the experiment on PC-3 prostate, with M14 melanoma, in the experiment with NCI-H522 lung and in the experiment with HT29 colon was greater than 100 µM throughout. The TGI in the experiment with EKVX NSCLC, with OVCAR-5 ovarian, in the experiment with A549 NSCLC and in the experiment with NCI-H460 lung was greater than 100 µM each time.

Regarding `O=C(O)CCN1C(=S)CSC1=S`, the TGI in the experiment on IGROV1 ovarian, with LOX IMVI melanoma, in the experiment on PC-3 prostate, in the experiment on M14 melanoma, with NCI-H522 lung and in the experiment with HT29 colon was greater than 100 µM each time. Also, the TGI in the experiment on EKVX NSCLC, in the experiment on OVCAR-5 ovarian, in the experiment with A549 NSCLC and in the experiment with NCI-H460 lung was greater than 100 µM throughout.

In the case of `CC(=O)/C(=N\N=C(N)N)c1ccccc1`, the TGI in the experiment on IGROV1 ovarian, in the experiment with LOX IMVI melanoma, in the experiment on PC-3 prostate, in the experiment on M14 melanoma, in the experiment on NCI-H522 lung and in the experiment with HT29 colon was greater than 100 µM in each case. Moreover, the TGI with EKVX NSCLC, with OVCAR-5 ovarian, in the experiment with A549 NSCLC and in the experiment on NCI-H460 lung was greater than 100 µM each time.

For the compound `COc1ccc(/C=C(\C#N)c2cc(OC)c(OC)c(OC)c2)cc1`, the GI50 in the experiment with IGROV1 ovarian is 0.0432 µM; in the experiment on LOX IMVI melanoma, 0.0258 µM; in the experiment with PC-3 prostate, 30.8 nM; in the experiment with M14 melanoma, 0.0269 µM; in the experiment with NCI-H522 lung, less than 0.01 µM; with HT29 colon, 0.0251 µM. The GI50 in the experiment on EKVX NSCLC is 0.0656 µM; in the experiment with OVCAR-5 ovarian, 0.0424 µM; in the experiment with A549 NSCLC, 0.0288 µM; in the experiment on NCI-H460 lung it was 0.0327 µM. Also, the TGI in the experiment with IGROV1 ovarian was greater than 100 µM; with LOX IMVI melanoma, greater than 100 µM; in the experiment with PC-3 prostate, greater than 87.1 µM; in the experiment with M14 melanoma, greater than 100 µM; with NCI-H522 lung, 0.0268 µM; in the experiment on HT29 colon, 17.8 µM. The TGI in the experiment on EKVX NSCLC is greater than 100 µM; in the experiment with OVCAR-5 ovarian, greater than 100 µM; in the experiment with A549 NSCLC, greater than 75.2 µM; with NCI-H460 lung, 23.6 µM.

Take `COc1ccc(CN2c3ccccc3Sc3ccccc32)cc1O`: the GI50 is 1.93 µM in the experiment on IGROV1 ovarian; 0.71 µM in the experiment on LOX IMVI melanoma; 503 nM in the experiment with PC-3 prostate; 0.383 µM with M14 melanoma; 0.241 µM with NCI-H522 lung; 0.724 µM in the experiment on HT29 colon. Further, the GI50 with EKVX NSCLC was 0.378 µM; in the experiment with OVCAR-5 ovarian, 12.7 µM; in the experiment with A549 NSCLC, 0.471 µM; in the experiment with NCI-H460 lung it was 0.444 µM. Further, the TGI in the experiment with IGROV1 ovarian came to 21.3 µM; with LOX IMVI melanoma, 18.8 µM; with PC-3 prostate it was 16.1 µM; with M14 melanoma it was 18.6 µM; in the experiment with NCI-H522 lung, 0.781 µM; in the experiment with HT29 colon it was 6.4 µM. For the same compound, the TGI with EKVX NSCLC turned out to be 15.9 µM; in the experiment on OVCAR-5 ovarian it was 36 µM; in the experiment with A549 NSCLC, 16.7 µM; with NCI-H460 lung, 13.4 µM.

For the compound `COc1ccc(C(=O)c2ccccc2)c(O)c1`, the GI50 with IGROV1 ovarian was greater than 100 µM; in the experiment on LOX IMVI melanoma, 92 µM; with PC-3 prostate, greater than 100000 nM; with M14 melanoma it was 81.7 µM; with NCI-H522 lung it was 89.9 µM; with HT29 colon it was 43.8 µM. For the same compound, the GI50 in the experiment on EKVX NSCLC was 40.9 µM; in the experiment on OVCAR-5 ovarian, greater than 100 µM; with A549 NSCLC, greater than 100 µM; in the experiment with NCI-H460 lung, 88.4 µM. Also, the TGI in the experiment on IGROV1 ovarian, in the experiment with LOX IMVI melanoma, in the experiment on PC-3 prostate, in the experiment on M14 melanoma, in the experiment on NCI-H522 lung and in the experiment with HT29 colon was greater than 100 µM in each case. In addition, the TGI in the experiment on EKVX NSCLC, in the experiment with OVCAR-5 ovarian, with A549 NSCLC and in the experiment on NCI-H460 lung was greater than 100 µM in each case.

Values taken from PubChem BioAssay (NCI).
